Measurements taken from PubChem BioAssay AID330 (DTP/NCI, 2004).
Several values for one entry are separate records, joined by “and”; a condition that tells them apart may be missing. Equal entries are not always repeated. Inconclusive results and toxic doses are left out. Square brackets hold non-standard residues; d marks the D form. Peptide text beside a SMILES is read from it. * marks the point of attachment. Nle = CCCC[CH](N)C(=O)O; Cbz = O=C(OCc1ccccc1)*

Tested on: P388 leukemia ip, CD2F1 mice, survival T/C
Test: NCI In Vivo Anticancer Drug Screen. Data for tumor model P388 Leukemia (intraperitoneal) in CD2F1 (CDF1) mice
Conditions: endpoint: median survival time, higher = longer survival
In short: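 Mice carrying the transplanted tumor received test compound or vehicle. Survival was recorded in each group, and the value is the treated-group measurement divided by that of the vehicle-treated control group.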

[1] = dose: 25.0 mg/kg/injection, schedule: Q01DX005 (ip), vehicle: saline with Tween-80
[2] = dose: 50.0 mg/kg/injection, schedule: Q01DX005 (ip), vehicle: saline with Tween-80
[3] = dose: 60.0 mg/kg/injection, schedule: Q01DX005 (ip), vehicle: saline with Tween-80
[4] = dose: 120.0 mg/kg/injection, schedule: Q01DX005 (ip), vehicle: saline with Tween-80
[5] = dose: 50.0 mg/kg/injection, schedule: Q01DX005 (ip), vehicle: Klucel (hydroxypropylcellulose) (HPC)
[6] = dose: 100.0 mg/kg/injection, schedule: Q01DX005 (ip), vehicle: Klucel (hydroxypropylcellulose) (HPC)
[7] = dose: 200.0 mg/kg/injection, schedule: Q01DX005 (ip), vehicle: Klucel (hydroxypropylcellulose) (HPC)
[8] = dose: 240.0 mg/kg/injection, schedule: Q01DX005 (ip), vehicle: saline with Tween-80
[9] = dose: 100.0 mg/kg/injection, schedule: Q01DX005 (ip), vehicle: saline with Tween-80
[10] = dose: 200.0 mg/kg/injection, schedule: Q01DX005 (ip), vehicle: saline with Tween-80
[11] = dose: 50.0 mg/kg/injection, schedule: Q01DX009 (ip), vehicle: saline with Tween-80
[12] = dose: 100.0 mg/kg/injection, schedule: Q01DX009 (ip), vehicle: saline with Tween-80
[13] = dose: 200.0 mg/kg/injection, schedule: Q01DX009 (ip), vehicle: saline with Tween-80
[14] = dose: 50.0 mg/kg/injection, schedule: Q01DX005 (ip), vehicle: saline

For C/C(=N\NC(=S)N1CCC(C)CC1)c1nccs1, the T/C (dose: 12.5 mg/kg/injection, schedule: Q01DX005 (ip), vehicle: saline with Tween-80) was 106 % of control, the T/C [1] was 116 % of control and the T/C [2] was 118 % of control.

In the case of CCN1/C(=C/C=C/C=C/c2oc3ccccc3[n+]2CC)Oc2ccccc21, the T/C (dose: 0.78 mg/kg/injection, schedule: Q01DX009 (ip), vehicle: saline) is reported as 104 % of control, the T/C (dose: 1.56 mg/kg/injection, schedule: Q01DX009 (ip), vehicle: saline) is reported as 104 % of control and the T/C (dose: 3.12 mg/kg/injection, schedule: Q01DX009 (ip), vehicle: saline) is reported as 110 % of control.

CC1(C)OC(=O)ON(C(c2ccccc2)c2ccccc2)C1=O was tested, and the T/C [3] was 101 % of control and the T/C [4] was 108 % of control.

For COc1ccc2c(c1)OC(C)(C)C(c1ccccc1)C2c1ccc(OCCBr)c([N+](=O)[O-])c1 (stereo unspecified), the T/C [5] was 101 % of control, the T/C [6] was 105 % of control and the T/C [7] was 97 % of control.

With O=C(CSc1nnc(CSc2ccc(Cl)cc2)n1-c1ccccc1)NC(=O)Nc1ccccc1 the T/C (dose: 7.5 mg/kg/injection, schedule: Q01DX005 (ip), vehicle: saline with Tween-80) was 94 % of control, the T/C (dose: 15.0 mg/kg/injection, schedule: Q01DX005 (ip), vehicle: saline with Tween-80) was 90 % of control and the T/C (dose: 30.0 mg/kg/injection, schedule: Q01DX005 (ip), vehicle: saline with Tween-80) was 86 % of control. For the same molecule, the T/C [3] was 88 % of control and the T/C [8] was 89 % of control (2×) and 96 % of control.

For CCOc1ccc(NS(=O)(=O)c2ccc(F)cc2)cc1, the T/C [3] was 99 % of control, the T/C [4] was 88 % of control and the T/C [8] was 95 % of control.

For CCCCc1ccc2nc(C)cc(N=[N+]=[N-])c2c1, the T/C [3] was 100 % of control and the T/C [4] was 98 % of control.

In the case of CCOC(=O)/C=C1\CSC2=NC(c3ccccc3)CN21 (stereo unspecified), the T/C (dose: 60.0 mg/kg/injection, schedule: Q01DX005 (ip), vehicle: Klucel (hydroxypropylcellulose) (HPC)) is reported as 94 % of control, the T/C (dose: 120.0 mg/kg/injection, schedule: Q01DX005 (ip), vehicle: Klucel (hydroxypropylcellulose) (HPC)) is reported as 94 % of control and the T/C (dose: 240.0 mg/kg/injection, schedule: Q01DX005 (ip), vehicle: Klucel (hydroxypropylcellulose) (HPC)) is reported as 86 % of control.

For O=C1C2C[C@@H]3c4ccccc4N[C@@H]3N2C(=O)C2CCCN12 (stereo partly specified), the T/C [5] was 97 % of control, the T/C [6] was 102 % of control and the T/C [7] was 94 % of control.

For CCCCC(NC(=O)OCc1ccccc1)C(=O)NC(C(=O)O)C(C)C (stereo unspecified) (Cbz-[Nle]-Val-OH; configuration not given here), the T/C [5] was 99 % of control, the T/C [6] was 111 % of control and the T/C [7] was 104 % of control.

For Cc1cc2cc3n(c2nn1)N=C(Cl)CC3, the T/C [3] was 86 % of control and the T/C [4] was 101 % of control.

In the case of c1ccc(P2(c3ccccc3)(c3ccccc3)C3C4C5C6C4C2C6C53)cc1 (stereo unspecified), the T/C (dose: 50.0 mg/kg/injection, schedule: Q01DX001 (ip), vehicle: saline with Tween-80) is reported as 109 % of control, the T/C (dose: 100.0 mg/kg/injection, schedule: Q01DX001 (ip), vehicle: saline with Tween-80) is reported as 104 % of control and the T/C (dose: 200.0 mg/kg/injection, schedule: Q01DX001 (ip), vehicle: saline with Tween-80) is reported as 113 % of control.

For CC(C)CC(C(=O)O)N1C(=O)c2ccccc2C1=O (stereo unspecified), the T/C [5] was 98 % of control, the T/C [6] was 100 % of control and the T/C [7] was 95 % of control.

In the case of CC1CCC(C(C)C)C(NN)C1 (stereo unspecified), the T/C [2] is reported as 104 % of control, the T/C [9] is reported as 100 % of control and the T/C [10] is reported as 108 % of control.

For CC(=O)NS(=O)(=O)c1ccc(N=NC2C(=O)N(C(=O)c3ccncc3)N=C2C)cc1 (stereo unspecified), the T/C [11] was 95 % of control, the T/C [12] was 97 % of control and the T/C [13] was 100 % of control.

In the case of CN1C(=O)CN=C(c2ccccn2)c2cc(Cl)ccc21, the T/C (dose: 75.0 mg/kg/injection, schedule: Q01DX001 (ip), vehicle: saline with Tween-80) is reported as 104 % of control, the T/C (dose: 150.0 mg/kg/injection, schedule: Q01DX001 (ip), vehicle: saline with Tween-80) is reported as 104 % of control and the T/C (dose: 300.0 mg/kg/injection, schedule: Q01DX001 (ip), vehicle: saline with Tween-80) is reported as 104 % of control.

In the case of CN1C(=O)OC2OC(C)(c3ccc(S(=O)(=O)c4ccccc4)cc3)C(=O)CC21 (stereo unspecified), the T/C [3] is reported as 100 % of control, the T/C [4] is reported as 97 % of control and the T/C [8] is reported as 90 % of control.

In the case of C/C=C(\C)N=NNc1ccccc1, the T/C (dose: 100.0 mg/kg/injection, schedule: Q04DX003 (ip), vehicle: saline + Tween-80 + alcohol) is reported as 114 % of control and the T/C (dose: 200.0 mg/kg/injection, schedule: Q04DX003 (ip), vehicle: saline + Tween-80 + alcohol) is reported as 114 % of control.

In the case of CC(C)C(=O)NCCCCCCN1CCCCC1, the T/C [14] is reported as 96 % of control and the T/C (dose: 100.0 mg/kg/injection, schedule: Q01DX005 (ip), vehicle: saline) is reported as 100 % of control.

With OCc1c(-c2ccc(Cl)cc2)c(-c2ccc(Cl)cc2)c2n1CCC2 the T/C [5] was 92 % of control, the T/C [6] was 92 % of control and the T/C [7] was 92 % of control.

With O=C1C(=O)C(CN2CCOCC2)=C(N2CCOCC2)C(N2CCOCC2)=C1CN1CCOCC1 the T/C [1] was 100 % of control, the T/C [2] was 100 % of control and the T/C [9] was 98 % of control. For the same molecule, the T/C [10] was 100 % of control.

O=C(Nc1ccccc1)Sc1nnc2c3ccccc3c3ccccc3c2n1 was tested, and the T/C [11] was 100 % of control, the T/C [12] was 101 % of control and the T/C [13] was 99 % of control.

In the case of O=N[O-].O=N[O-].[Co].[NH-]CC[N-]CCO.[NH-]CC[N-]CCO, the T/C (dose: 6.25 mg/kg/injection, schedule: Q01DX009 (ip), vehicle: saline) is reported as 95 % of control, the T/C (dose: 12.5 mg/kg/injection, schedule: Q01DX009 (ip), vehicle: saline) is reported as 99 % of control and the T/C (dose: 25.0 mg/kg/injection, schedule: Q01DX009 (ip), vehicle: saline) is reported as 94 % of control. The T/C (dose: 50.0 mg/kg/injection, schedule: Q01DX009 (ip), vehicle: saline) was 95 % of control.

In the case of COC(=O)c1nnn(-c2c(C)cccc2C(C)C)c1C(=O)c1ccccc1, the T/C [3] is reported as 100 % of control, the T/C [4] is reported as 109 % of control and the T/C [8] is reported as 94 % of control.

In the case of CC(C)(C#N)OC(=O)Nc1c(Cl)cccc1Cl, the T/C [3] is reported as 100 % of control, the T/C [4] is reported as 98 % of control and the T/C [8] is reported as 94 % of control.

With CNc1ccc(N=Nc2ccncc2C)cc1C the T/C (dose: 6.25 mg/kg/injection, schedule: Q01DX009 (ip), vehicle: DMSO) was 89 % of control, the T/C (dose: 12.5 mg/kg/injection, schedule: Q01DX009 (ip), vehicle: DMSO) was 88 % of control and the T/C (dose: 25.0 mg/kg/injection, schedule: Q01DX009 (ip), vehicle: DMSO) was 87 % of control.

CSC(SC)c1cc(-c2c(Cl)cccc2Cl)no1 was tested, and the T/C [3] was 102 % of control, the T/C [4] was 103 % of control and the T/C [8] was 103 % of control.

With CCCCN(CCNc1cc(OC)cc2cccnc12)C(C)CC (stereo unspecified) the T/C (dose: 12.5 mg/kg/injection, schedule: Q01DX005 (ip), vehicle: saline) was 112 % of control, the T/C (dose: 25.0 mg/kg/injection, schedule: Q01DX005 (ip), vehicle: saline) was 119 % of control and the T/C [14] was 98 % of control and 104 % of control.

With CC(=O)Nc1ccc2c3c(cccc13)CC2 the T/C (dose: 50.0 mg/kg/injection, schedule: Q01DX009 (ip), vehicle: Klucel (hydroxypropylcellulose) (HPC)) was 101 % of control, the T/C (dose: 100.0 mg/kg/injection, schedule: Q01DX009 (ip), vehicle: Klucel (hydroxypropylcellulose) (HPC)) was 106 % of control and the T/C (dose: 200.0 mg/kg/injection, schedule: Q01DX009 (ip), vehicle: Klucel (hydroxypropylcellulose) (HPC)) was 108 % of control.

For CCOC(=O)CCN(CCC(=O)OCC)c1ccccn1, the T/C [5] was 105 % of control, the T/C [6] was 99 % of control and the T/C [7] was 101 % of control.

For CCOC(=N)N1[C@H](C)[C@@H]1C, the T/C (dose: 12.5 mg/kg/injection, schedule: Q01DX005 (ip), vehicle: Klucel (hydroxypropylcellulose) (HPC)) was 109 % of control, the T/C (dose: 25.0 mg/kg/injection, schedule: Q01DX005 (ip), vehicle: Klucel (hydroxypropylcellulose) (HPC)) was 124 % of control and the T/C [14] was 86 % of control.

For CCOC(=O)CNC(=O)C(CS)NC(=O)C(CSC(c1ccccc1)c1ccccc1)NC(=O)OCc1ccccc1 (stereo unspecified), the T/C [5] was 97 % of control, the T/C [6] was 99 % of control and the T/C [7] was 103 % of control.

COc1ccc(/C=C/c2nnc(N)o2)cc1 was tested, and the T/C [2] was 100 % of control, the T/C [9] was 101 % of control and the T/C [10] was 105 % of control.

With C=C(C)CC1(C)CC(=O)C(C)=C(C)C1=O (stereo unspecified) the T/C (dose: 25.0 mg/kg/injection, schedule: Q04DX003 (ip), vehicle: Klucel (hydroxypropylcellulose) (HPC)) was 110 % of control, the T/C (dose: 50.0 mg/kg/injection, schedule: Q04DX003 (ip), vehicle: Klucel (hydroxypropylcellulose) (HPC)) was 105 % of control and the T/C (dose: 100.0 mg/kg/injection, schedule: Q04DX003 (ip), vehicle: Klucel (hydroxypropylcellulose) (HPC)) was 100 % of control.

CC(NNC(=S)N1CC2CCC(CC2)C1)c1cc2ccccc2cn1 (stereo unspecified) was tested, and the T/C [2] was 114 % of control, the T/C [9] was 112 % of control and the T/C [10] was 121 % of control.

With C=C(C(=O)N(C(C)C)C(C)C)C(C)C(C)(C)O (stereo unspecified) the T/C (dose: 50.0 mg/kg/injection, schedule: Q04DX002 (ip), vehicle: Klucel (hydroxypropylcellulose) (HPC)) was 101 % of control and the T/C (dose: 100.0 mg/kg/injection, schedule: Q04DX002 (ip), vehicle: Klucel (hydroxypropylcellulose) (HPC)) was 101 % of control.
